Results taken from US5319097A, “Pharmaceutical agents” (Imperial Chemical Industries PLC, priority 1990, dated 1994).
Like-named read-outs stand apart in the source and are kept apart here.

Legend:
[1] = Acute toxicity study, mice; conditions: mouse, in vivo
Excerpt: (§1) Acute toxicity studies have been conducted on compound 1 in order to obtain LD50 values.

[2] = Acute toxicity study, rats; conditions: rat, in vivo
Excerpt: as §1

[3] = Recent clinical trials, oral administration to asthmatic patients; type: in vivo; conditions: administered orally to asthmatic patients
Excerpt: This ability of compound 1 to be effective when administered orally is unusual and highly desirable.

Solubility in water = type: physicochemical
[4] = Physical stability of the physical forms / conversion between forms; type: physicochemical
[5] = Comparison of bioavailability in dogs (compositions with polyvinylpyrrolidone and forms A, B and X); type: in vivo; conditions: 20 mg tablet with polyvinylpyrrolidone
Excerpt: During each study period, blood samples were periodically obtained from each animal and the concentration of compound 1 determined.

[6] = Bioavailability of physical forms and compositions (general statement); conditions: in vivo

Compound | Area under curve [5] [ng·h/mL] | Maximum concentration [5] [µg/mL] | bioavailability [6] | Half-life [5] [h] | physical stability [4] | also measured
COc1cc(C(=O)NS(=O)(=O)c2ccccc2C)ccc1Cc1cn(C)c2ccc(NC(=O)OC3CCCC3)cc12 [Compound 1, N-[4-[5-(cyclopentyloxycarbonyl)amino-l-methylindol-3-ylmethyl]-3-methoxybenzoyl]-2-methylbenzenesulphonamide] | – | – | – | – | – | LD50 [1]: > 500 mg/kg; LD50 [2]: > 500 mg/kg; effectiveness in the treatment of asthma [3]: effective; solubility in water (Solubility in water): relatively poor solubility
COc1cc(C(=O)NS(=O)(=O)c2ccccc2C)ccc1Cc1cn(C)c2ccc(NC(=O)OC3CCCC3)cc12 [Form A] | 4028 | 1.004 | relatively good bioavailability | – | – | conversion of form A into form B ([4]; in compositions, high relative humidity and elevated temperatures): conversion of form A into form B has been found to occur; stability of form A in the compositions ([4]; in the compositions according to the invention): acceptably stable; conversion into form B ([4]; in the presence of water): tends to convert into form B; Half-life ([5]; dog, blood, po, 20 mg, read-out: Half-life (converted)): 5.4 h
COc1cc(C(=O)NS(=O)(=O)c2ccccc2C)ccc1Cc1cn(C)c2ccc(NC(=O)OC3CCCC3)cc12 [Form B, N-[4-[5-(cyclopentyloxycarbonyl)amino-l-methylindol-3-yl-methyl]-3-methoxybenzoyl]-2-methylbenzenesulphonamide] | 773 | 0.105 | – | 3.524 | – | temperature above which form B loses water [4]: above 60 °C
COc1cc(C(=O)NS(=O)(=O)c2ccccc2C)ccc1Cc1cn(C)c2ccc(NC(=O)OC3CCCC3)cc12 [Form X] | 1307 | 0.314 | relatively poor bioavailability | 3.590 | physically stable | –
COc1cc(C(=O)NS(=O)(=O)c2ccccc2C)ccc1Cc1cn(C)c2ccc(NC(=O)OC3CCCC3)cc12 [forms B] | – | – | relatively poor bioavailability | – | physically stable | –
